According to US20240279239A1, “COMPOUNDS AND METHODS FOR MODULATING SPLICING” (REMIX THERAPEUTICS INC., priority 2020, published 2024):
Like-named read-outs stand apart in the source and are kept apart here.

What was measured:
Assay type in all cases: cell-based
SMN2 = test: RT-qPCR canonical junction panel assay, SMN2; conditions: gene panel, read-out: SMN2 IC50 (decrease in CJ mRNA levels)
Method: (§1) Example 44: Exemplary splicing assay for monitoring expression levels of splice variants Compounds described herein were used to modulate RNA transcript abundance in cells. The expression of a target mRNA was measured by detecting the formation of an exon-exon junction in the canonical transcript (CJ). A compound mediated exon-inclusion event was detected by observing an increase in formation of a new junction with an alternative exon (AJ). Real-time qPCR assays were used to detect these splicing switches and interrogate the potency of various compounds towards different target genes. A high-throughput real time quantitative PCR (RT-qPCR) assay was developed to measure these two isoforms of the mRNA (CJ and AJ) for an exemplary gene, HTT, together with a control housekeeping gene, GAPDH or GUSB or PPIA, used for normalization. Briefly, the A673 or K562 cell line was treated with various compounds described herein (e.g., compounds of Formula (I)). After treatment, the levels of the HTT mRNA targets were determined from each sample of cell lysate by cDNA synthesis followed by qPCR.
(§2) The A673 cell line was cultured in DMEM with 10% FBS. Cells were diluted with full growth media and plated in a 96-well plate (15,000 cells in 100 µl media per well). The plate was incubated at 37° C. with 5% CO2 for 24 hours to allow cells to adhere. An 11-point 3-fold serial dilution of the compounds was made in DMSO then diluted in media in an intermediate plate. Compounds were transferred from the intermediate plate to the cell plate with the top dose at a final concentration of 10 uM in the well. Final DMSO concentration was kept at or below 0.25%. The cell plate was returned to the incubator at 37° C. with 5% CO2 for an additional 24 hours.
(§3) The K562 cell line was cultured in IMDM with 10% FBS. For K562, cells were diluted with full growth media and plated in either a 96-well plate (50,000 cells in 50 uL media per well) or a 384-well plate (8,000-40,000 cells in 45 uL media per well). An 11-point 3-fold serial dilution of the compounds were made in DMSO then diluted in media in an intermediate plate. Compound was transferred from the intermediate plate to the cell plate with the top dose at a final concentration of 10 uM in the well. Final DMSO concentration was kept at or below 0.25%. Final volume was 100 uL for 96-well plate and 50 uL for 384-well plate. The cell plate was then placed in an incubator at 37° C. with 5% CO2 for 24 hours.
(§4) The cells were then gently washed with 50 uL-100 uL cold PBS before proceeding to addition of lysis buffer. 30 uL-50 uL of room temperature lysis buffer with DNAse I (and optionally RNAsin) was added to each well. Cells were shaken/mixed thoroughly at room temperature for 5-10 minutes for lysis to take place and then 3 uL-5 uL of room temperature stop solution was added and wells were shaken/mixed again. After 2-5 minutes, the cell lysate plate was transferred to ice for RT-qPCR reaction setup. The lysates could also be frozen at ˜80° C. for later use.
(§5) In some cases, a direct lysis buffer was used. An appropriate volume of 3× lysis buffer (10 mM Tris, 150 mM NaCl, 1.5%-2.5% Igepal and 0.1-1 U/uL RNAsin, pH 7.4) was directly added to either K562 or A673 cells in media and mixed by pipetting 3 times. The plates were then incubated at room temperature with shaking/rocking for 20-50 minutes to allow for lysis to take place. After this time, the cell lysate plate was transferred to ice to set up for the RT-qPCR reactions. The lysates could also be frozen at −80° C. for later use.
(§6) To set up 10 uL RT-qPCR reactions, cell lysates were transferred to 384-well qPCR plates containing the master mix according to the table below. The plates were sealed, gently vortexed, and spun down before the run. The volumes were adjusted accordingly in some instances where the reaction was carried in 20 uL. The table below summarizes the components of the RT-qPCR reactions: […]

HTT [1] = test: RT-qPCR canonical junction panel assay, HTT; conditions: gene panel, read-out: HTT IC50 (decrease in CJ mRNA levels)
Method: as §1, §2, §3, §4, §5, §6

Target C = test: RT-qPCR canonical junction panel assay, Target C; conditions: gene panel, read-out: Target C IC50 (decrease in CJ mRNA levels)
Method: as §1, §2, §3, §4, §5, §6

HTT [2] = test: RT-qPCR splicing assay for HTT mRNA isoforms (canonical junction CJ and alternative junction AJ); conditions: A673 or K562 cell line, 24 hours treatment
Method: as §1, §2, §3, §4, §5, §6

[3] = decrease in CJ mRNA levels, read-out: HTT CJ AC50
[4] = increase in AJ mRNA, read-out: HTT AJ AC50

Compound | IC50 (SMN2) | IC50 (HTT [1]) | IC50 (Target C) | AC50 (HTT [2]; [3]) | AC50 (HTT [2]; [4])
Cc1cc(-c2cc(=O)n3cc(N4CCN(C)CC4)sc3n2)cc2cn(C)nc12 [Compound 109, 7-(2,7-dimethyl-2H-indazol-5-yl)-2-(4-methylpiperazin-1-yl)-5H-thiazolo[3,2-α]pyrimidin-5-one] | > 10 µM | > 10 µM | > 10 µM | > 10 µM | > 10 µM
Cc1cc(-c2cc(=O)n3nc(N4CCN(C)CC4)sc3n2)cc2cn(C)nc12 [Compound 157] | > 10 µM | > 10 µM | > 10 µM | > 10 µM | > 10 µM
Cc1cn2cc(-c3cc(=O)n4nc(N5CCN(C)CC5)sc4n3)cc(F)c2n1 [Compound 159, 7-(8-fluoro-2-methylimidazo[1,2-α]pyridin-6-yl)-2-(4-methylpiperazin-1-yl)-5H-[1,3,4]thiadiazolo[3,2-α]pyrimidin-5-one] | 1 to 10 µM | 1 to 10 µM | 1 to 10 µM | 1 to 10 µM | 1 to 10 µM
CN1CCN(c2nc3ncn(-c4ccc5nn(C)cc5c4)c(=O)c3s2)CC1 [Compound 182, 6-(2-methyl-2H-indazol-5-yl)-2-(4-methylpiperazin-1-yl)thiazolo[4,5-d]pyrimidin-7(6H)-one] | 1 to 10 µM | 1 to 10 µM |  | 1 to 10 µM | 1 to 10 µM
Cc1cc(-c2cn3c(=O)cc(N4CCN(C)CC4)nc3s2)cc2cn(C)nc12 [Compound 183, 2-(2,7-dimethyl-2H-indazol-5-yl)-7-(4-methylpiperazin-1-yl)-5H-thiazolo[3,2-α]pyrimidin-5-one] | 1 to 10 µM | > 10 µM |  | > 10 µM | > 10 µM
Cc1cn2cc(-c3cn4c(=O)cc(N5CCN(C)CC5)nc4s3)cc(F)c2n1 [Compound 184] | 1 to 10 µM | > 10 µM |  | > 10 µM | > 10 µM
Cc1cn2nc(-c3cc(=O)n4cc(N(C)C5CC(C)(C)NC(C)(C)C5)sc4n3)cc(C)c2n1 [Compound 205, 7-(2,8-dimethylimidazo[1,2-b]pyridazin-6-yl)-2-(methyl(2,2,6,6-tetramethylpiperidin-4-yl)amino)-5H-thiazolo[3,2-α]pyrimidin-5-one] | 1 to 10 µM | 1 to 10 µM | 1 to 10 µM | 1 to 10 µM | 1 to 10 µM
Cc1cc(-c2nn3c(=O)cc(N4CCNCC4)nc3s2)cc2cn(C)nc12 [Compound 206, 2-(2,7-dimethyl-2H-indazol-5-yl)-7-(piperazin-1-yl)-5H-[1,3,4]thiadiazolo[3,2-α]pyrimidin-5-one] | 0.1 to 1 µM | 1 to 10 µM | 1 to 10 µM | 1 to 10 µM | 1 to 10 µM
Cc1cn2cc(-c3cc(=O)n4cc(N5CCNC6(CC6)C5)sc4n3)cc(F)c2n1 [Compound 207, 7-(8-fluoro-2-methylimidazo[1,2-α]pyridin-6-yl)-2-(4,7-diazaspiro[2.5]octan-7-yl)-5H-thiazolo[3,2-α]pyrimidin-5-one] | 0.1 to 1 µM | > 10 µM | > 10 µM | > 10 µM | > 10 µM
Cc1cn2cc(-c3cn4c(=O)cc(N5CCNC6(CC6)C5)nc4s3)cc(F)c2n1 [Compound 208, 2-(8-fluoro-2-methylimidazo[1,2-α]pyridin-6-yl)-7-(4,7-diazaspiro[2.5]octan-7-yl)-5H-thiazolo[3,2-α]pyrimidin-5-one] | 1 to 10 µM | 1 to 10 µM | 1 to 10 µM | 1 to 10 µM | 1 to 10 µM
Cc1cn2cc(-c3cc(=O)n4nc(N5CCNC6(CC6)C5)sc4n3)cc(F)c2n1 [Compound 209, 7-(8-fluoro-2-methylimidazo[1,2-α]pyridin-6-yl)-2-(4,7-diazaspiro[2.5]octan-7-yl)-5H-[1,3,4]thiadiazolo[3,2-α]pyrimidin-5-one] | 1 to 10 µM | 1 to 10 µM | 1 to 10 µM | 1 to 10 µM | 1 to 10 µM
Cc1cc(-c2nn3c(=O)cc(N4CCN(C)CC4)nc3s2)cc2cn(C)nc12 [Compound 210, 2-(2,7-dimethyl-2H-indazol-5-yl)-7-(4-methylpiperazin-1-yl)-5H-[1,3,4]thiadiazolo[3,2-α]pyrimidin-5-one] | 1 to 10 µM | 1 to 10 µM | 1 to 10 µM | 1 to 10 µM | 1 to 10 µM
Cc1cn2nc(-c3cc(=O)n4cc(N5CCNC6(CC6)C5)sc4n3)cc(C)c2n1 [Compound 211, 7-(2,8-dimethylimidazo[1,2-b]pyridazin-6-yl)-2-(4,7-diazaspiro[2.5]octan-7-yl)-5H-thiazolo[3,2-α]pyrimidin-5-one] | 0.1 to 1 µM | 1 to 10 µM | 1 to 10 µM | 1 to 10 µM | 1 to 10 µM
Cc1cn2nc(-c3cn4c(=O)cc(N5CCNC6(CC6)C5)nc4s3)cc(C)c2n1 [Compound 212, 2-(2,8-dimethylimidazo[1,2-b]pyridazin-6-yl)-7-(4,7-diazaspiro[2.5]octan-7-yl)-5H-thiazolo[3,2-α]pyrimidin-5-one] | 1 to 10 µM | 1 to 10 µM | 1 to 10 µM | 1 to 10 µM | 1 to 10 µM
Cc1cn2cc(-c3cn4c(=O)cc(N5CCNCC5)nc4s3)cc(F)c2n1 [Compound 213, 2-(8-fluoro-2-methylimidazo[1,2-α]pyridin-6-yl)-7-(piperazin-1-yl)-5H-thiazolo[3,2-α]pyrimidin-5-one] | 1 to 10 µM | > 10 µM | > 10 µM | > 10 µM | > 10 µM
Cc1cn2cc(-c3nn4c(=O)cc(N5CCNCC5)nc4s3)cc(F)c2n1 [Compound 214, 2-(8-fluoro-2-methylimidazo[1,2-α]pyridin-6-yl)-7-(piperazin-1-yl)-5H-[1,3,4]thiadiazolo[3,2-α]pyrimidin-5-one] | 0.1 to 1 µM | 1 to 10 µM | > 10 µM | 1 to 10 µM | > 10 µM
Cc1cn2cc(-c3nn4c(=O)cc(N(C)C5CC(C)(C)NC(C)(C)C5)nc4s3)cc(F)c2n1 [Compound 215, 2-(8-fluoro-2-methylimidazo[1,2-α]pyridin-6-yl)-7-(methyl(2,2,6,6-tetramethylpiperidin-4-yl)amino)-5H-[1,3,4]thiadiazolo[3,2-α]pyrimidin-5-one] | 0.1 to 1 µM | 1 to 10 µM | 1 to 10 µM | 1 to 10 µM | 1 to 10 µM
Cc1cn2cc(-c3nn4c(=O)cc(N5CCNC6(CC6)C5)nc4s3)cc(F)c2n1 [Compound 216, 2-(8-fluoro-2-methylimidazo[1,2-α]pyridin-6-yl)-7-(4,7-diazaspiro[2.5]octan-7-yl)-5H-[1,3,4]thiadiazolo[3,2-α]pyrimidin-5-one] | 1 to 10 µM | 1 to 10 µM | 1 to 10 µM | 1 to 10 µM | 1 to 10 µM
Cc1cn2cc(-c3nn4c(=O)cc(N5CCN(C)CC5)nc4s3)cc(F)c2n1 [Compound 217, 2-(8-fluoro-2-methylimidazo[1,2-α]pyridin-6-yl)-7-(4-methylpiperazin-1-yl)-5H-[1,3,4]thiadiazolo[3,2-α]pyrimidin-5-one] | 1 to 10 µM | 1 to 10 µM | 1 to 10 µM | 1 to 10 µM | 1 to 10 µM
